Reference: US5789425A, “Imidazolidinone derivatives, their acid adducts and therapeutic drugs for senile dementia” (Kyorin Pharmaceutical Co., Ltd., priority 1993, dated 1998)

How the values were obtained:
[1] = biological target: T1, M1 type muscarinic cholinergic receptor (Rattus norvegicus, UniProt P08482); assay: Radioligand binding experiment to M1 type muscarinic cholinergic receptor ([3H]-pirenzepine); details: 1 nM [3H]-pirenzepine, rat brain synaptosome membrane, 60 minutes at 25° C.; read-out: [^3 H]-PZ (M1) IC50
T1 construct: crude synaptosome membrane specimen prepared from all brains (except cerebellum and brain stem) of rat; from tissue; host or cells: rat whole brain without cerebellum and brain stem, crude synaptosomal membranes
T1 sequence (P08482 1-460): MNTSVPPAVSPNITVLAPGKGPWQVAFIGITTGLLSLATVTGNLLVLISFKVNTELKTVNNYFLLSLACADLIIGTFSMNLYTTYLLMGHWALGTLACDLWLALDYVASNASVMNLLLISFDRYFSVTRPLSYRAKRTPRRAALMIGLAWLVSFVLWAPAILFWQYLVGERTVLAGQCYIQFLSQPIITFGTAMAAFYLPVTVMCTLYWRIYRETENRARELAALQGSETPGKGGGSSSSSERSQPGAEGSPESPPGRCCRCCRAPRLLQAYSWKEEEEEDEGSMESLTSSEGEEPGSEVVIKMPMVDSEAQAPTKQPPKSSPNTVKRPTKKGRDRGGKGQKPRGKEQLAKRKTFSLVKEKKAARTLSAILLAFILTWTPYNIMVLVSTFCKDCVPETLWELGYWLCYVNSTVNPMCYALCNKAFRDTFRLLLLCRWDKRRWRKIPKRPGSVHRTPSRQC
Method: 1) Radioligand binding experiment to M1 type muscarinic cholinergic receptor
Method: To a crude synaptosome membrane specimen prepared from all brains (except cerebellum and brain stem) of rat, [^3 H]-pirenzepine ([^3 H]-PZ, final concentration: 1 nM) and testing compound were added and the mixture was incubated for 60 minutes at 25° C. After stopped the reaction by filtered with suction, the radioactivity on filter was measured with liquid scintillation counter. The specific binding level of [^3 H]-pirenzepine was determined by subtracting the non-specific binding level in the presence of atropine (1 μM) from total binding level. Putting the [^3 H]-pirenzepine binding in the absence of testing compound on 100, the concentration of compound to decrease by 50% (IC50 value) was made an index of the binding activity of compound to M1 muscarinic receptor (refer to: J. A. D. M. Toner et al, Life Science, 1987, 40, 1981-1987).

[2] = biological target: T2, M2 type muscarinic cholinergic receptor (Rattus norvegicus, UniProt P10980); assay: Radioligand binding experiment to M2 type muscarinic cholinergic receptor ([3H]-QNB); details: 0.1 nM [3H]-QNB, rat brain stem synaptosome membrane; read-out: [^3 H]-QMB (M2) IC50
T2 construct: crude synaptosome membrane specimen was prepared from the brain stem (medulla oblongata-pons) of rat; from tissue; host or cells: rat brain stem (medulla oblongata-pons), crude synaptosomal membranes
T2 sequence (P10980 1-466): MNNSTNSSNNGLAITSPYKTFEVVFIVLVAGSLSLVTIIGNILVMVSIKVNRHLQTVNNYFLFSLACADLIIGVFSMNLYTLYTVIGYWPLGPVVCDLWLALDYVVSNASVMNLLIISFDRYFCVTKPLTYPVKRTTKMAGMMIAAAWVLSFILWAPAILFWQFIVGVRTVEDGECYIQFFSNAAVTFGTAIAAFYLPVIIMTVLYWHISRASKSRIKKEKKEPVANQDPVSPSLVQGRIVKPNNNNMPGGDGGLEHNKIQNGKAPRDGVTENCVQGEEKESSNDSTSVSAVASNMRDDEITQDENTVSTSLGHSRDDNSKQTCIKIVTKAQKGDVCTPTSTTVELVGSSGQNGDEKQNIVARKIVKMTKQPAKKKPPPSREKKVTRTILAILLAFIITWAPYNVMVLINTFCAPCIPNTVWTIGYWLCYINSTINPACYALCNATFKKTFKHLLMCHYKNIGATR

[3] = test system: M1 and M2 muscarinic receptors; assay: Selectivity to M1 receptor (ratio of IC50 values of M1 and M2 binding experiments); parameters: species or system rat
Method: 3) Selectivity to M1 receptor
This was determined from the ratio of IC50 values of testing compound obtained from the binding experiments of M1 and M2 muscarinic receptors. [formula]

[4] = test system: pirenzepine-induced amnesia; assay: Testing on the pirenzepine-induced amnesia (step-through type passive avoidance); assay type: in vivo, Std:ddy strain male mice; details: orally 60 minutes before acquisition trial; for Reaction latency Mean ± S.E.: retention trial 24 hours later, maximum 300 seconds, pirenzepine-treated mice
From the text: In vivo pharmacological test
Testing on the pirenzepine-induced amnesia
For the experiment animals, Std:ddy strain male mice with body weight of 24 to 33 g (age in week: 5) (Nippon SLC) were used. For the device, a step-through type passive avoidance apparatus (made by Ohara Medical Co., Ltd.) consisting of two light and dark rooms was used. In the acquisition trial, mouse was placed in the light room and, 10 seconds later, the partitive guillotine door was opened. As soon as the mouse moved into the dark room, the guillotine door was closed and electric shock of 43 to 44 V was given for 1 second through the metal grid bars of the floor. The retention trial was conducted 24 hours later since then. […] The induction of amnesia was performed by fixing a mouse at prone position without anesthetization at 20 minutes before learning acquisition trial and injecting pirenzepine (10 μg/2 μl/mouse bilaterally into cerebral ventricles using a microsyringe. Moreover, a group not to administered with pirenzepine before acquisition trial (non-amnesia comparison group) was also provided. The testing compound was administered orally at 60 minutes before acquisition trial. The improvement rate was calculated according to following equation and the results are shown in Table 8 (refer to: M. P. Callfield et al, J. Pharm. Pharmacol.) 1983, 35, 131-132). [formula]

IC50 [1] [nM]	IC50 [2] [nM]	IC50 (M2)/C50 (M1) [3]	Compound	Improvement rate ([4]; 3 mg/kg) [%]	Reaction latency Mean ± S.E. ([4]; 3 mg/kg) [s]	Improvement rate ([4]; 1 mg/kg) [%]	Reaction latency Mean ± S.E. ([4]; 1 mg/kg) [s]
530	> 6000	> 11.3	O=C1N(C2=CCCN(Cc3ccccc3)C2)CCN1c1ccc([N+](=O)[O-])cc1 [Example 4, 1-[3-(1-Phenylmethyl-1,2,5,6-tetrahydropyridyl)]-3-(4-nitrophenyl)-2-imidazolidinone]	43.6	71.1 ± 30.2	–	–
370	> 6000	> 16.2	O=C1N(C2=CCCN(Cc3ccccc3)C2)CCN1c1ccc(Cl)cc1 [Example 17, 1-[3-(1-Phenylmethyl-1,2,5,6-tetrahydropyridyl)]-3-(4-chlorophenyl)-2-imidazolidinone]	68.8	164.2 ± 37.5	82.7	189.9 ± 52.8
